According to ChEMBL document CHEMBL5579895, “Discovery of TYRA-300: First Oral Selective FGFR3 Inhibitor for the Treatment of Urothelial Cancers and Achondroplasia” (J Med Chem, 2024):
Activity calls are given as the source filed them. The calls are words filed in the database; no cut-off is given here.

Key:
[1] = Inhibition of recombinant FGFR3/BAIAP2L1 (unknown origin) transduced in mouse BaF3 cells incubated for 48 hrs by Cell Titer Glo assay; assay type: cell-based; conditions: BaF3, 48 h
[2] = Inhibition of recombinant BCR/FGFR1 (unknown origin) transduced in mouse BaF3 cells incubated for 48 hrs by Cell Titer Glo assay; assay type: cell-based; conditions: BaF3, 48 h
[3] = Stability in human liver microsomes assessed as half life at 1 uM incubated upto 180 mins by LC-MS/MS analysis; assay type: ADME, Microsome
[4] = Inhibition of recombinant BCR/FGFR2 (unknown origin) transduced in mouse BaF3 cells incubated for 48 hrs by Cell Titer Glo assay; assay type: cell-based; conditions: BaF3, 48 h
[5] = Inhibition of recombinant BCR/FGFR4 (unknown origin) transduced in mouse BaF3 cells incubated for 48 hrs by Cell Titer Glo assay; assay type: cell-based; conditions: BaF3, 48 h
[6] = Stability in human hepatocytes assessed as half life at 1 uM incubated upto 180 mins by LC-MS/MS analysis; assay type: ADME, cell-based, Hepatocyte
RT112/84 [7] = assay: cells; assay type: functional, cell-based; conditions: Homo sapiens
Description: Inhibition of cell viability in human RT112/84 cells harboring FGFR3/TACC3 fusion incubated for 72 to 120 hrs by Cell Titer Glo assay

RT112/84 [8] = assay: cells; assay type: functional, cell-based; conditions: Homo sapiens; remark: listed apart in the source
Description: Inhibition of cell viability in human RT112/84 cells harboring FGFR3 V555M mutant incubated for 72 to 120 hrs by Cell Titer Glo assay

[9] = Inhibition of cell viability in human UMUC14 cells harboring FGFR3 S249C mutant incubated for 72 to 120 hrs by Cell Titer Glo assay; assay type: functional, cell-based
KG-1 = assay: Inhibition of cell viability in human KG-1 cells harboring FGFR1-fusion incubated for 72 to 120 hrs by Cell Titer Glo assay; assay type: functional, cell-based
RT112/84 [10] = assay: Antitumor activity against human RT112/84 cells harboring FGFR3/TACC3 fusion xenografted in Balb/c nude mouse model at 15 mg/kg, po bid treated for 21 days relative to control; assay type: functional; conditions: for inhibition in vivo at 15 mg/kg: RT112/84, 504 h, time 21 day, read-out: TGI

half-life at 1 µM [3]	half-life at 1 µM [6]	IC50 (RT112/84 [7])	IC50 (RT112/84 [8])	SMILES	IC50 [1]	IC50 [2]	IC50 [4]	IC50 [5]	IC50 [9]	IC50 (KG-1)	inhibition in vivo at 15 mg/kg (RT112/84 [10])	Activity (RT112/84 [10]; time 21.0 day)
4.7 min	–	–	–	CCC(=O)N1CCN(c2ccc(-c3n[nH]c4ccc(O[C@H](C)c5c(Cl)cncc5Cl)cc34)cn2)CC1	6 nM	112 nM	–	–	–	–	–	–
–	–	–	–	C[C@H](Oc1ccc2[nH]nc(-c3ccc(N4CC5(C4)CN(S(C)(=O)=O)C5)nc3)c2c1)c1c(Cl)cncc1Cl	133 nM	–	–	–	–	–	–	–
5.5 min	–	–	–	C[C@@H](Oc1ccc2[nH]nc(-c3ccc(N4CCOCC4)nc3)c2c1)c1c(Cl)cncc1Cl	36 nM	514 nM	313 nM	1230 nM	–	–	–	–
3.3 min	–	–	–	C[C@@H](Oc1ccc2[nH]nc(-c3ccc(N4CCN(S(C)(=O)=O)CC4=O)nc3)c2c1)c1c(Cl)cncc1Cl	48 nM	653 nM	407 nM	412 nM	–	–	–	–
–	102 min	9.2 nM	22 nM	C[C@@H](Oc1ccc2[nH]nc(-c3ccc(N4CC5(CCS(=O)(=O)C5)C4)nc3)c2c1)c1c(Cl)cncc1Cl	3.2 nM	104 nM	111 nM	106 nM	10 nM	83 nM	56%	–
9.6 min	–	–	–	C[C@@H](Oc1ccc2[nH]nc(-c3ccc(N4CCN(S(C)(=O)=O)CC4)nc3)c2c1)c1c(Cl)cncc1Cl	5.8 nM	150 nM	104 nM	156 nM	–	–	–	–
–	88 min	–	–	C[C@@H](Oc1ccc2[nH]nc(-c3ccc(N4CCC5(CC4)CCS(=O)(=O)C5)nc3)c2c1)c1c(Cl)cncc1Cl	14 nM	423 nM	193 nM	577 nM	–	–	–	–
–	–	–	–	C[C@@H](Oc1ccc2[nH]nc(/C=C/c3cnn(CCO)c3)c2c1)c1c(Cl)cncc1Cl [LY-2874455]	0.2 nM	0.5 nM	0.2 nM	2 nM	–	–	–	–
–	> 100 min	27 nM	–	C[C@@H](Oc1ccc2[nH]nc(-c3ccc(N4CC5(C4)CN(S(C)(=O)=O)C5)nn3)c2c1)c1c(Cl)cncc1Cl	8.7 nM	204 nM	224 nM	278 nM	34 nM	238 nM	–	–
–	–	–	–	C[C@@H](Oc1ccc2[nH]nc(-c3ccc(N4CC5(C4)CS(=O)(=O)C5)nc3)c2c1)c1c(Cl)cncc1Cl	26 nM	228 nM	191 nM	300 nM	–	–	–	–
–	–	–	–	C[C@@H](Oc1ccc2[nH]nc(-c3ccc(Cl)nc3)c2c1)c1c(Cl)cncc1Cl	110 nM	1040 nM	451 nM	2200 nM	–	–	–	–
–	–	–	–	C[C@@H](Oc1ccc2[nH]nc(-c3ccc(N4CCC5(CCOC5)CC4)nc3)c2c1)c1c(Cl)cncc1Cl	48 nM	711 nM	360 nM	835 nM	–	–	–	–
3.5 min	–	–	–	C[C@@H](Oc1ccc2[nH]nc(-c3ccc(N4CCN(C(=O)N5CCN(C)CC5)CC4)nc3)c2c1)c1c(Cl)cncc1Cl	6.5 nM	113 nM	114 nM	148 nM	–	–	–	–
–	132 min	–	–	C[C@@H](Oc1ccc2[nH]nc(-c3cnc(N4CC5(C4)CN(S(C)(=O)=O)C5)nc3)c2c1)c1c(Cl)cncc1Cl	30 nM	880 nM	487 nM	128 nM	–	–	–	inactive
1.1 min	–	–	–	C[C@@H](Oc1ccc2[nH]nc(-c3ccc(N4CCN(C(=O)N(C)C)CC4)nc3)c2c1)c1c(Cl)cncc1Cl	13 nM	290 nM	249 nM	307 nM	–	–	–	–
–	85 min	–	–	C[C@@H](Oc1ccc2[nH]nc(-c3ccc(N4CC5(CCCS(=O)(=O)C5)C4)nc3)c2c1)c1c(Cl)cncc1Cl	2.5 nM	61 nM	33 nM	17 nM	–	–	–	–
–	–	–	–	C[C@@H](Oc1ccc2[nH]nc(-c3ccc(N4CC5(C4)CN(S(C)(=O)=O)C5)nc3)c2c1)c1c(Cl)cccc1Cl	30 nM	405 nM	–	–	–	–	–	–
–	14 min	–	–	C[C@@H](Oc1ccc2[nH]nc(-c3ccc(N4CC5(CN(C(=O)N(C)C)C5)C4)nc3)c2c1)c1c(Cl)cncc1Cl	17 nM	234 nM	202 nM	469 nM	–	–	–	–
–	> 100 min	15 nM	42 nM	C[C@@H](Oc1ccc2[nH]nc(-c3ccc(N4CC5(CCN(S(C)(=O)=O)CC5)C4)nc3)c2c1)c1c(Cl)cncc1Cl	14 nM	212 nM	127 nM	147 nM	15 nM	1570 nM	64%	–
–	–	–	–	C[C@@H](Oc1cc2c(-c3ccc(N4CC5(C4)CN(S(C)(=O)=O)C5)nc3)n[nH]c2cc1Cl)c1c(Cl)cncc1Cl	6.2 nM	60 nM	35 nM	37 nM	–	–	–	–

half-life at 1 µM [3]	half-life at 1 µM [6]	IC50 (RT112/84 [7])	IC50 (RT112/84 [8])	SMILES	IC50 [1]	IC50 [2]	IC50 [4]	IC50 [5]	IC50 [9]	IC50 (KG-1)	inhibition in vivo at 15 mg/kg (RT112/84 [10])	Activity (RT112/84 [10]; time 21.0 day)
–	–	–	–	COc1cc2[nH]nc(-c3ccc(N4CC5(C4)CN(S(C)(=O)=O)C5)nc3)c2cc1O[C@H](C)c1c(Cl)cncc1Cl	0.8 nM	14 nM	6.9 nM	4.5 nM	–	–	–	–
–	> 100 min	13 nM	36 nM	C[C@@H](Oc1ccc2[nH]nc(-c3ccc(N4CC5(CCN(S(C)(=O)=O)C5)C4)nc3)c2c1)c1c(Cl)cncc1Cl	16 nM	401 nM	222 nM	177 nM	13 nM	205 nM	22%	–
15 min	–	–	–	C[C@@H](Oc1ccc2[nH]nc(-c3ccc(C4CCN(S(C)(=O)=O)CC4)nc3)c2c1)c1c(Cl)cncc1Cl	5.3 nM	99 nM	–	–	–	–	–	–
4.8 min	–	–	–	C[C@@H](Oc1ccc2[nH]nc(-c3ccc(N4CCN(S(C)(=O)=O)C5(CC5)C4)nc3)c2c1)c1c(Cl)cncc1Cl	12 nM	172 nM	–	–	–	–	–	–
–	64 min	–	–	Cc1ncc(Cl)c([C@@H](C)Oc2ccc3[nH]nc(-c4ccc(N5CC6(C5)CN(S(C)(=O)=O)C6)nc4)c3c2)c1Cl	10 nM	176 nM	47 nM	–	–	–	–	–
–	–	–	–	C[C@@H](Oc1ccc2[nH]nc(-c3ccc(N4CCC5(CCCO5)CC4)nc3)c2c1)c1c(Cl)cncc1Cl	97 nM	872 nM	503 nM	2030 nM	–	–	–	–
–	36 min	–	–	C[C@@H](Oc1ccc2[nH]nc(-c3ccc(N4CCC5(CC4)CN(C)CC(=O)N5)nc3)c2c1)c1c(Cl)cncc1Cl	13 nM	208 nM	154 nM	298 nM	–	–	–	–
–	40 min	–	–	C[C@@H](Oc1ccc2[nH]nc(-c3ccc(N4CC5(CCCN(S(C)(=O)=O)C5)C4)nc3)c2c1)c1c(Cl)cncc1Cl	6 nM	94 nM	62 nM	39 nM	–	–	–	–
–	–	–	–	C[C@@H](Oc1ccc2[nH]nc(-c3ccc(N4CC5(C4)CN(S(C)(=O)=O)C5)nc3)c2c1)c1c(Cl)cnc(F)c1Cl	16 nM	258 nM	–	–	–	–	–	–
–	32 min	–	–	Cc1cncc(C)c1[C@@H](C)Oc1ccc2[nH]nc(-c3ccc(N4CC5(C4)CN(S(C)(=O)=O)C5)nc3)c2c1	8.1 nM	135 nM	86 nM	52 nM	–	–	–	–
–	51 min	–	–	CC(C)N1CC2(CN(c3ccc(-c4n[nH]c5ccc(O[C@H](C)c6c(Cl)cncc6Cl)cc45)cn3)C2)C1	4.1 nM	59 nM	35 nM	22 nM	–	–	–	–
–	–	–	–	CCS(=O)(=O)N1CC2(CN(c3ccc(-c4n[nH]c5ccc(O[C@H](C)c6c(Cl)cncc6Cl)cc45)cn3)C2)C1	40 nM	390 nM	290 nM	529 nM	–	–	–	–
8.5 min	–	–	–	COC(=O)N1CCN(c2ccc(-c3n[nH]c4ccc(O[C@H](C)c5c(Cl)cncc5Cl)cc34)cn2)CC1	38 nM	556 nM	387 nM	591 nM	–	–	–	–
–	> 100 min	–	–	C[C@@H](Oc1cc2c(-c3ccc(N4CC5(C4)CN(S(C)(=O)=O)C5)nc3)n[nH]c2cc1F)c1c(Cl)cncc1Cl	6.3 nM	84 nM	56 nM	40 nM	–	–	–	–
–	> 100 min	–	–	C[C@@H](Oc1ccc2[nH]nc(-c3cnc(N4CC5(C4)CN(S(C)(=O)=O)C5)cn3)c2c1)c1c(Cl)cncc1Cl	16 nM	189 nM	97 nM	21 nM	–	–	–	–
–	49 min	–	–	C[C@@H](Oc1ccc2[nH]nc(-c3ccc(N4CC5(CCN5S(C)(=O)=O)C4)nc3)c2c1)c1c(Cl)cncc1Cl	18 nM	290 nM	131 nM	229 nM	–	–	–	–
–	27 min	–	–	CCOC(=O)N1CC2(C1)CN(c1ccc(-c3n[nH]c4ccc(O[C@H](C)c5c(Cl)cncc5Cl)cc34)cn1)C2	22 nM	434 nM	248 nM	418 nM	–	–	–	–
5 min	–	–	–	C[C@@H](Oc1ccc2[nH]nc(-c3ccc(N4CCN(C)CC4)nc3)c2c1)c1c(Cl)cncc1Cl	3.6 nM	46 nM	28 nM	27 nM	–	–	–	–
–	–	–	–	C[C@H](Oc1ccc2[nH]nc(-c3ccc(N4CC5(C4)CN(S(C)(=O)=O)C5)nc3)c2c1)c1c(Cl)cnnc1Cl	179 nM	2000 nM	–	–	–	–	–	–

SMILES	half-life at 1 µM [3]	half-life at 1 µM [6]	IC50 (RT112/84 [7])	IC50 (RT112/84 [8])	IC50 [1]	IC50 [2]	IC50 [4]	IC50 [5]	IC50 [9]	IC50 (KG-1)	inhibition in vivo at 15 mg/kg (RT112/84 [10])	Activity (RT112/84 [10]; time 21.0 day)
C[C@@H](Oc1ccc2[nH]nc(-c3ccc(N4CC5CC(C4)N5S(C)(=O)=O)nc3)c2c1)c1c(Cl)cncc1Cl	15 min	–	–	–	23 nM	338 nM	–	–	–	–	–	–
